Assays:
[1] = system: Weissella viridescens NRRL B-1951; assay: tube assay, W. viridescens growth with nisin A or Z (absorbance); format: cell-based; conditions: 15 Hr
Experimental: 100 g De-Man, Rogosa and Sharpe (MRS) media was prepared in a 500 mL Erlenmeyer to contain 5.5% solids in deionized water (18.2 MΩ, Hydro Service and Supplies. Gaithersburg, Md.). The media was autoclaved (121° C. 15 min), cooled, and inoculated with 1 mL (0.5 mL culture+0.5 mL glycerol, 40%; frozen at −78° C.) of Weissella viridescens NRRL B-1951 (test strain). The culture was incubated at 31° C. overnight (15 Hr).
The next day, stock solutions of either nisin A or Z were prepared in deionized water to contain 31.3 and 33.7 μg/g of each peptide.
100 g MRS media was prepared to contain 5.5% solids. Two sets (one set each for nisin A and nisin Z) of eight Hach-type tubes (Kimble Chase 45066-16100) were prepared. Within each set, in order was added 5.00, 4.95, 4.90, 4.75, 4.50, 4.00, 3.50 and 3.00 g MRS media. The tubes were sealed and autoclaved.
To each tube was added, of the appropriate nisin stock, 0.00, 0.05, 0.10, 0.25, 0.50, 1.00, 1.50, and 2.00 g. Each tube was inoculated with 0.25 g of late-log W. viridescens NRRL B-1951 culture. The tubes were sealed and the absorbance at 600 nm was quickly measured (Hach DR900). The tubes were segregated by set and incubated at 31° C. overnight (15 Hr).
Each tube was thoroughly mixed to suspend settled cells and the absorbance was measured again at 600 nm. The final absorbance values for each sample were corrected for their respective background (taken just after inoculation, scattered light from added cells). The corrected absorption values were a measure of W. viridescens growth.
As indicated above, the absorbance of the culture was measured again at 600 nm as a measure of W. viridescens growth, and the absorbance values for each sample were corrected for their respective background. These corrected absorption values plotted against nisin concentration and minimum inhibiting concentration approximated via regression.
The results were fit via four parameter logistic regression (4PLR), combined into a continuous function with a second assay set (0.65-9.99 μg/g), and are shown in FIG. 11A.

[2] = system: Weissella viridescens NRRL B-1951; assay: HPLC of tube supernatants: glucose consumption and organic acid production; format: cell-based; conditions: for acetic acid in fermentation media: MRS media originally contained 7% acetate
Experimental: Each tube was sampled (1.5 mL conical polypropylene centrifuge tubes) and centrifuged at 10 kRPM for 10 minutes to remove and suspended cells. The resulting supernatants were filtered (0.2 μm nylon), diluted to 0.5% solids, and analyzed by high pressure liquid chromatography (HPLC, Agilent 1100, refractive index detector and BioRad Ainex HPX-87H column) for consumption of glucose and production of organic acids.
Note that the MRS media originally contained 7% acetate; therefore 7% should be subtracted from the values for acetate in Table 8 to ascertain the amount of acetate generated during the assay.

head/neck tumors = conditions: mouse, in vivo; cited from earlier work

Sequence: MSTKDFNLDLVSVSKKDSGASPRITSISLCTPGCKTGALMGCNMKTATCNCSIHVSN [nisin Z]
- 91516 ABS 610f ([1]; tube Z2, nisin Z 0.34 μg/g): 1.618
- Corrected ABS 610rs ([1]; tube Z2, nisin Z 0.34 μg/g): 1.146
- 91516 ABS 610f ([1]; tube Z3, nisin Z 0.77 μg/g): 1.526
- Corrected ABS 610rs ([1]; tube Z3, nisin Z 0.77 μg/g): 1.062
- 91516 ABS 610f ([1]; tube Z4, nisin Z 1.58 μg/g): 1.296
- Corrected ABS 610rs ([1]; tube Z4, nisin Z 1.58 μg/g): 0.841
- 91516 ABS 610f ([1]; tube Z5, nisin Z 3.19 μg/g): 0.801
- Corrected ABS 610rs ([1]; tube Z5, nisin Z 3.19 μg/g): 0.359
- 91516 ABS 610f ([1]; tube Z6, nisin Z 6.31 μg/g): 0.426
- Corrected ABS 610rs ([1]; tube Z6, nisin Z 6.31 μg/g): 0.003
- 91516 ABS 610f ([1]; tube Z7, nisin Z 9.54 μg/g): 0.384
- Corrected ABS 610rs ([1]; tube Z7, nisin Z 9.54 μg/g): 0.001
- 91516 ABS 610f ([1]; tube Z8, nisin Z 12.61 μg/g): 0.386
- Corrected ABS 610rs ([1]; tube Z8, nisin Z 12.61 μg/g): 0.001
- Maltotriose in fermentation media ([2]; tube Z2, nisin Z 0.34 μg/g): 0.282 %/brix
- ethanol in fermentation media ([2]; tube Z2, nisin Z 0.34 μg/g): 0.057 %/brix
- formic acid in fermentation media ([2]; tube Z2, nisin Z 0.34 μg/g): 0.303 %/brix
- fructose in fermentation media ([2]; tube Z2, nisin Z 0.34 μg/g): 0.000 %/brix
- glucose in fermentation media ([2]; tube Z2, nisin Z 0.34 μg/g): 22.988 %/brix
- glycerol in fermentation media ([2]; tube Z2, nisin Z 0.34 μg/g): 0.343 %/brix
- lactic acid in fermentation media ([2]; tube Z2, nisin Z 0.34 μg/g): 6.742 %/brix
- maltose in fermentation media ([2]; tube Z2, nisin Z 0.34 μg/g): 0.722 %/brix
- acetic acid in fermentation media ([2]; tube Z2, nisin Z 0.34 μg/g): 8.273 %/brix
- Maltotriose in fermentation media ([2]; tube Z4, nisin Z 1.58 μg/g): 0.265 %/brix
- ethanol in fermentation media ([2]; tube Z4, nisin Z 1.58 μg/g): 0.083 %/brix
- formic acid in fermentation media ([2]; tube Z4, nisin Z 1.58 μg/g): 0.309 %/brix
- fructose in fermentation media ([2]; tube Z4, nisin Z 1.58 μg/g): 0.000 %/brix
- glucose in fermentation media ([2]; tube Z4, nisin Z 1.58 μg/g): 24.153 %/brix
- glycerol in fermentation media ([2]; tube Z4, nisin Z 1.58 μg/g): 0.337 %/brix
- lactic acid in fermentation media ([2]; tube Z4, nisin Z 1.58 μg/g): 5.081 %/brix
- maltose in fermentation media ([2]; tube Z4, nisin Z 1.58 μg/g): 1.007 %/brix
- acetic acid in fermentation media ([2]; tube Z4, nisin Z 1.58 μg/g): 8.247 %/brix
- Maltotriose in fermentation media ([2]; tube Z5, nisin Z 3.19 μg/g): 0.311 %/brix
- ethanol in fermentation media ([2]; tube Z5, nisin Z 3.19 μg/g): 0.067 %/brix
- formic acid in fermentation media ([2]; tube Z5, nisin Z 3.19 μg/g): 0.281 %/brix
- fructose in fermentation media ([2]; tube Z5, nisin Z 3.19 μg/g): 0.000 %/brix
- glucose in fermentation media ([2]; tube Z5, nisin Z 3.19 μg/g): 24.698 %/brix
- glycerol in fermentation media ([2]; tube Z5, nisin Z 3.19 μg/g): 0.321 %/brix
- lactic acid in fermentation media ([2]; tube Z5, nisin Z 3.19 μg/g): 2.995 %/brix
- maltose in fermentation media ([2]; tube Z5, nisin Z 3.19 μg/g): 0.750 %/brix
- acetic acid in fermentation media ([2]; tube Z5, nisin Z 3.19 μg/g): 8.026 %/brix
- Maltotriose in fermentation media ([2]; tube Z6, nisin Z 6.31 μg/g): 0.247 %/brix
- ethanol in fermentation media ([2]; tube Z6, nisin Z 6.31 μg/g): 0.059 %/brix
- formic acid in fermentation media ([2]; tube Z6, nisin Z 6.31 μg/g): 0.267 %/brix
- fructose in fermentation media ([2]; tube Z6, nisin Z 6.31 μg/g): 0.000 %/brix
- glucose in fermentation media ([2]; tube Z6, nisin Z 6.31 μg/g): 25.353 %/brix
- glycerol in fermentation media ([2]; tube Z6, nisin Z 6.31 μg/g): 0.320 %/brix
- lactic acid in fermentation media ([2]; tube Z6, nisin Z 6.31 μg/g): 1.351 %/brix
- maltose in fermentation media ([2]; tube Z6, nisin Z 6.31 μg/g): 0.726 %/brix
- acetic acid in fermentation media ([2]; tube Z6, nisin Z 6.31 μg/g): 7.969 %/brix
- Maltotriose in fermentation media ([2]; tube Z7, nisin Z 9.54 μg/g): 0.291 %/brix
- ethanol in fermentation media ([2]; tube Z7, nisin Z 9.54 μg/g): 0.065 %/brix
- formic acid in fermentation media ([2]; tube Z7, nisin Z 9.54 μg/g): 0.263 %/brix
- fructose in fermentation media ([2]; tube Z7, nisin Z 9.54 μg/g): 0.000 %/brix
- glucose in fermentation media ([2]; tube Z7, nisin Z 9.54 μg/g): 25.501 %/brix
- glycerol in fermentation media ([2]; tube Z7, nisin Z 9.54 μg/g): 0.335 %/brix
- lactic acid in fermentation media ([2]; tube Z7, nisin Z 9.54 μg/g): 1.431 %/brix
- maltose in fermentation media ([2]; tube Z7, nisin Z 9.54 μg/g): 0.895 %/brix
- acetic acid in fermentation media ([2]; tube Z7, nisin Z 9.54 μg/g): 8.026 %/brix
- Maltotriose in fermentation media ([2]; tube Z8, nisin Z 12.61 μg/g): 0.318 %/brix
- ethanol in fermentation media ([2]; tube Z8, nisin Z 12.61 μg/g): 0.148 %/brix
- formic acid in fermentation media ([2]; tube Z8, nisin Z 12.61 μg/g): 0.299 %/brix
- fructose in fermentation media ([2]; tube Z8, nisin Z 12.61 μg/g): 0.000 %/brix
- glucose in fermentation media ([2]; tube Z8, nisin Z 12.61 μg/g): 25.740 %/brix
- glycerol in fermentation media ([2]; tube Z8, nisin Z 12.61 μg/g): 0.346 %/brix
- lactic acid in fermentation media ([2]; tube Z8, nisin Z 12.61 μg/g): 1.652 %/brix
- maltose in fermentation media ([2]; tube Z8, nisin Z 12.61 μg/g): 0.876 %/brix
- acetic acid in fermentation media ([2]; tube Z8, nisin Z 12.61 μg/g): 8.261 %/brix
- effect on tumors (in words) (head/neck tumors): can reduce tumorigenesis in mice
